Measurements reported in US11767322B2 (BRISTOL-MYERS SQUIBB COMPANY, priority 2020, dated 2023).
Where two headings read alike, the source gives them in different places.

What was measured:
[1] = system: MLKL phosphorylation in HT29-L23 human colorectal adenocarcinoma cells; test: MLKL phosphorylation high-content assay; assay type: cell-based
[2] = molecular target: GST-tagged PIK3Cδ in complex with PIK3R1 (Homo sapiens, UniProt O00329); test: PI3Kδ HTRF binding assay; settings: HTRF probe displacement, 1 h at rt; read-out: PIK3CD IC50
[3] = Homo sapiens, 6 h, HT29-L23 cells, necroptosis induced with TNFα, SMAC mimetic and Z-VAD, 6 h, maximal inhibition defined by Nec1s, read-out: pMLKL IC50
[4] = HT29-L23 cells, necroptosis induced with TNFα, SMAC mimetic and Z-VAD, 6 h, maximal inhibition defined by Nec1s, read-out: pMLKL IC50
[5] = Table 22, compounds of the present invention, read-out: pMLKL IC50

Chain of GST-tagged PIK3Cδ in complex with PIK3R1 (O00329 whole entry): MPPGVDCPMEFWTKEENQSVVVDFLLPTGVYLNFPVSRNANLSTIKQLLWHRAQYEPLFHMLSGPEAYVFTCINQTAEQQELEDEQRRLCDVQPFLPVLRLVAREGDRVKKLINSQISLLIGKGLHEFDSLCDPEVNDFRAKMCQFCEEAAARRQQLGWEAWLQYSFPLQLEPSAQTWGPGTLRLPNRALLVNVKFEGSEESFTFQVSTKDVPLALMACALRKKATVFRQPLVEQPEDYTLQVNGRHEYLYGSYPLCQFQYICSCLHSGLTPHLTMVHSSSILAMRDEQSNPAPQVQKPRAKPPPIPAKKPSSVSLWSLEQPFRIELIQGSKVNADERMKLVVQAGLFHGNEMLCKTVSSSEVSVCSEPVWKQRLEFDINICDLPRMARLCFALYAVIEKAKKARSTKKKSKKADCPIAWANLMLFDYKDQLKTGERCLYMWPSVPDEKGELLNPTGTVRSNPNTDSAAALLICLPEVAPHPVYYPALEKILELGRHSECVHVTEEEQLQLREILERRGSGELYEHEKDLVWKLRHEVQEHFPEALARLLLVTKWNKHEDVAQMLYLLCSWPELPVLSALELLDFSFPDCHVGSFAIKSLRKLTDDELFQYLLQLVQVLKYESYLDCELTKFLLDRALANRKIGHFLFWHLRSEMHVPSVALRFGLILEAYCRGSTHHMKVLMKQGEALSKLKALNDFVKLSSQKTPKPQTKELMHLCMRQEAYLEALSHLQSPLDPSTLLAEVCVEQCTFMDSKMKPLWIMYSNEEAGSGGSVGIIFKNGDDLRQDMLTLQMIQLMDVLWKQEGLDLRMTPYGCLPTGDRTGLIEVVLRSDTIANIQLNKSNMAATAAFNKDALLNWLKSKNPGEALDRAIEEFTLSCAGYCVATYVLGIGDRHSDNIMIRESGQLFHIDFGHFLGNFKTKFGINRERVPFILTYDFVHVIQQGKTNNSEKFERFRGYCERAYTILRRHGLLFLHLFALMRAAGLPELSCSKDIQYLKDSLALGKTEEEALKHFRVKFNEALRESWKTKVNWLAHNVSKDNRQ
Chain of GST-tagged PIK3Cδ in complex with PIK3R1 (P27986 whole entry partner): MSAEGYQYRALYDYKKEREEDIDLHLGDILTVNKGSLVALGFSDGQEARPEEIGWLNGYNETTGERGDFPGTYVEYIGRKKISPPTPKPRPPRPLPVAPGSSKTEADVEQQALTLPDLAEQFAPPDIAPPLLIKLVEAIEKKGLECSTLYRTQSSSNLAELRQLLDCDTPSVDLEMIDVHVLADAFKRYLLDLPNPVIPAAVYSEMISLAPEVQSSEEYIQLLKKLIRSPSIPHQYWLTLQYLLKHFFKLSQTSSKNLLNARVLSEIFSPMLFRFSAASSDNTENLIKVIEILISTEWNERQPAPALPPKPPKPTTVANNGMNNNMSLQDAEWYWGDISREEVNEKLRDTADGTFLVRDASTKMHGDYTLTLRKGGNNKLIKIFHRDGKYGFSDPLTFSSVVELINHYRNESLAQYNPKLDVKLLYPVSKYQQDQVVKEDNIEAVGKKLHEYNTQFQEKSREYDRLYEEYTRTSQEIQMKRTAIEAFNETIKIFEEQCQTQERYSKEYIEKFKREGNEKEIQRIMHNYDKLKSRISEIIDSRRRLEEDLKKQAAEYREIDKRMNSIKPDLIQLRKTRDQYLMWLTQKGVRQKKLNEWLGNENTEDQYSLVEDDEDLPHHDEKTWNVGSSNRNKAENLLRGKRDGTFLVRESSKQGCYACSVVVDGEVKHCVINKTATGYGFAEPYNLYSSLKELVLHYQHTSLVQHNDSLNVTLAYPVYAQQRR

Structure (SMILES) | IC50 [1, 3] [nM] | IC50 [2] [nM] | other results
Cc1ccc(-c2ccn3nc(N)nc3c2)c(F)c1C(=O)NCCC(O)c1ccc(F)c(F)c1 (single isomer, unassigned) [Example 66, 3-(2-amino-[1,2,4]triazolo[1,5-a]pyridin-7-yl)-N-(3-(3,4-difluorophenyl)-3-hydroxypropyl)-2-fluoro-6-methylbenzamide] | 1.2 | > 15000 | IC50 ([1]; Homo sapiens, Table 22, compounds of the present invention, read-out: pMLKL IC50): 1.2 nM
Cc1ccc(-c2ccn3nc(N)nc3c2)c(F)c1C(=O)NCC(F)(F)C(O)C1CC(F)(F)C1 (stereo not drawn) [Example 259, 3-(2-amino-[1,2,4]triazolo[1,5-a]pyridin-7-yl)-N-(3-(3,3-difluorocyclobutyl)-2,2-difluoro-3-hydroxypropyl)-2-fluoro-6-methylbenzamide] |  | > 15000 | 
Cc1ccc(-c2ccn3nc(N)nc3c2)c(F)c1C(=O)NC(CF)CC(O)c1ccc(Cl)cc1 (single isomer, unassigned) [Example 24, 3-(2-amino-[1,2,4]triazolo[1,5-a]pyridin-7-yl)-N-(4-(4-chlorophenyl)-1-fluoro-4-hydroxybutan-2-yl)-2-fluoro-6-methylbenzamide] |  | > 15000 | 
Cc1cc(F)c(-c2ccn3nc(N)nc3c2)cc1C(=O)NCCC(O)c1ccc(C(F)(F)F)cc1 (single isomer, unassigned) [Example 4, 5-(2-amino-[1,2,4]triazolo[1,5-a]pyridin-7-yl)-4-fluoro-N-(3-hydroxy-3-(4-(trifluoromethyl)phenyl)propyl)-2-methylbenzamide] |  | > 15000 | IC50 ([1]; read-out: pMLKL IC50, HT29-L23 cells, necroptosis induced with TNFα, SMAC mimetic and Z-VAD, 6 h, maximal inhibition defined by Nec1s): 1 nM
Cc1cc(F)c(-c2ccn3nc(N)nc3c2)cc1C(=O)NCCC(O)c1ccc(C(F)(F)F)cc1 (single isomer, unassigned) [Example 3, 5-(2-amino-[1,2,4]triazolo[1,5-a]pyridin-7-yl)-4-fluoro-N-(3-hydroxy-3-(4-(trifluoromethyl)phenyl)propyl)-2-methylbenzamide] |  | > 15000 | 
Cc1ccc(-c2ccn3nc(N)nc3c2)c(F)c1C(=O)NCC(F)(F)C(O)c1ccc(Cl)c(Cl)c1 (single isomer, unassigned) [Example 112, 3-{2-amino-[1,2,4]triazolo[1,5-a]pyridin-7-yl}-N-[3-(3,4-dichlorophenyl)-2,2-difluoro-3-hydroxypropyl]-2-fluoro-6-methylbenzamide] |  | > 15000 | 
Cc1cc(F)c(-c2ccn3nc(N)nc3c2)cc1C(=O)NCCC(O)c1ccc(C(F)(F)F)cc1 (racemic) [Example 2, 5-(2-amino-[1,2,4]triazolo[1,5-a]pyridin-7-yl)-4-fluoro-N-(3-hydroxy-3-(4-(trifluoromethyl)phenyl)propyl)-2-methylbenzamide] |  | > 15000 | 
Cc1ccc(-c2ccn3nc(N)nc3c2)c(F)c1C(=O)NC[C@@H](F)[C@H](O)c1ccc(Cl)cc1 (single isomer, unassigned) [Example 303] |  | > 15000 | 
Cc1ccc(-c2ccn3nc(N)nc3c2)c(F)c1C(=O)NCC(F)(F)C(O)c1ccc(Cl)c(Cl)c1 (single isomer, unassigned) [Example 113, 3-{2-amino-[1,2,4]triazolo[1,5-a]pyridin-7-yl}-N-[3-(3,4-dichlorophenyl)-2,2-difluoro-3-hydroxypropyl]-2-fluoro-6-methylbenzamide] |  | > 15000 | 
Nc1nc2cc(-c3ccc(Cl)c(C(=O)NCC[C@@H](O)c4ccc(Cl)cc4)c3)ccn2n1 [Example 90, (R)-5-(2-amino-[1,2,4]triazolo[1,5-a]pyridin-7-yl)-2-chloro-N-(3-(4-chlorophenyl)-3-hydroxypropyl)benzamide] | 15 | > 15000 | 
Nc1nc2cc(-c3ccc(Cl)c(C(=O)NCC[C@H](O)c4ccc(Cl)cc4)c3)ccn2n1 [Example 91, (S)-5-(2-amino-[1,2,4]triazolo[1,5-a]pyridin-7-yl)-2-chloro-N-(3-(4-chlorophenyl)-3-hydroxypropyl)benzamide] | 34 | 8000 | 
Cc1ccc(-c2ccn3nc(N)nc3c2)c(F)c1C(=O)NCCC(=O)c1ccc(Cl)cc1 [Example 143, 3-{2-amino-[1,2,4]triazolo[1,5-a]pyridin-7-yl}-N-[3-(4-chlorophenyl)-3-oxopropyl]-2-fluoro-6-methylbenzamide] |  | > 15000 | IC50 ([1]; Homo sapiens, 6 h, read-out: pMLKL IC50, HT29-L23 cells, necroptosis induced with TNFα, SMAC mimetic and Z-VAD, 6 h, maximal inhibition defined by Nec1s): 2.4 nM
Cc1ccc(-c2ccn3nc(N)nc3c2)c(F)c1C(=O)NCC[C@H](O)c1ccc(C#N)cc1 [Example 139, 3-{2-amino-[1,2,4]triazolo[1,5-a]pyridin-7-yl}-N-[(3S)-3-(4-cyanophenyl)-3-hydroxypropyl]-2-fluoro-6-methylbenzamide] | 7.4 | > 15000 | 
Cc1ccc(-c2ccn3nc(N)nc3c2)c(F)c1C(=O)NCC(F)(F)C(O)C1CC(F)(F)C1 (stereo not drawn) [Example 258, 3-(2-amino-[1,2,4]triazolo[1,5-a]pyridin-7-yl)-N-(3-(3,3-difluorocyclobutyl)-2,2-difluoro-3-hydroxypropyl)-2-fluoro-6-methylbenzamide] |  | > 15000 | 
CC(O)(CCNC(=O)c1cc(-c2ccn3nc(N)nc3c2)ccc1Cl)c1ccccc1 (stereo not drawn) [Example 93, 5-(2-amino-[1,2,4]triazolo[1,5-a]pyridin-7-yl)-2-chloro-N-(3-hydroxy-3-phenylbutyl)benzamide] | 256 | 11000 | 
Cc1cc(Cl)c(-c2ccn3nc(N)nc3c2)cc1C(=O)NCC[C@H](O)c1ccc(Cl)cc1 [Example 144, (S)-5-(2-amino-[1,2,4]triazolo[1,5-a]pyridin-7-yl)-4-chloro-N-(3-(4-chlorophenyl)-3-hydroxypropyl)-2-methylbenzamide] | 4.2 | > 15000 | 
Nc1nc2cc(-c3c(F)ccc(C(=O)NCC[C@@H](O)c4ccc(Cl)cc4)c3F)ccn2n1 [Example 220, (R)-3-(2-amino-[1,2,4]triazolo[1,5-a]pyridin-7-yl)-N-(3-(4-chlorophenyl)-3-hydroxypropyl)-2,4-difluorobenzamide] | 36 | > 15000 | 
Cc1ccc(-c2ccn3nc(N)nc3c2)c(F)c1C(=O)NC(C)CC(O)c1ccc(Cl)cc1 (racemic) [Example 20, 3-(2-amino-[1,2,4]triazolo[1,5-a]pyridin-7-yl)-N-[4-(4-chlorophenyl)-4-hydroxybutan-2-yl]-2-fluoro-6-methylbenzamide] |  | > 15000 | IC50 [1, 4]: 3.6 nM; IC50 [1, 5]: 3.6 nM
Cc1ccc(-c2ccn3nc(N)nc3c2)c(F)c1C(=O)NC(C)CC(O)c1ccc(Cl)cc1 (racemic) [Example 19, 3-(2-amino-[1,2,4]triazolo[1,5-a]pyridin-7-yl)-N-[4-(4-chlorophenyl)-4-hydroxybutan-2-yl]-2-fluoro-6-methylbenzamide] |  | > 15000 | IC50 [1, 4]: 7.7 nM; IC50 [1, 5]: 7.7 nM
Cc1ccc(-c2ccn3nc(N)nc3c2)c(F)c1C(=O)NCCC(O)c1ccc(Cl)cn1 (single isomer, unassigned) [Example 47, 3-(2-amino-[1,2,4]triazolo[1,5-a]pyridin-7-yl)-N-(3-(5-chloropyridin-2-yl)-3-hydroxypropyl)-2-fluoro-6-methylbenzamide] |  | > 15000 | 
Cc1ccc(-c2ccn3nc(N)nc3c2)c(F)c1C(=O)NC[C@H](F)[C@@H](O)c1ccc(Cl)cc1 (single isomer, unassigned) [Example 302] |  | > 15000 | 
Cc1ccc(-c2ccn3nc(N)nc3c2)c(F)c1C(=O)NC(CF)CC(O)c1ccc(Cl)cc1 (single isomer, unassigned) [Example 23, 3-(2-amino-[1,2,4]triazolo[1,5-a]pyridin-7-yl)-N-(4-(4-chlorophenyl)-1-fluoro-4-hydroxybutan-2-yl)-2-fluoro-6-methylbenzamide] |  | > 15000 | 
